According to US5134137A, “Cephalosporin antibiotics” (The Upjohn Company, priority 1990, dated 1992):
Values after ≈ are worked out from the molar mass of the structure shown. Where two headings read alike, the source gives them in different places.

Tests used:
[1] = system: Enterococcus faecalis; assay: MIC, agar dilution, Enterococcus faecalis; assay type: cell-based; conditions: Enterococcus faecalis; strain UC694; read-out: MIC
Procedure: (§1) Stock solutions of each test antibiotic compound were prepared to have a concentration of 2 mg. of the test compound per milliliter in sterile water of 0.1M ammonium acetate solution. The amount of each compound used was adjusted for base compound activity as calculated from the purity data for the selected batch of compound.
(§2) The dilution procedure described by Washington and Sutter [Manual of Clinical Microbiology, 3rd, Edit. (Lennett, E. H. et al, Eds.), pp. 453-458 (1980), American Society for Microbiology, Washington, D.C.] was modified so that serial concentrations of 128 to 0.0625 microgram/ml. in sterile water was obtained. Then 1.5 ml. aliquots of these test antibiotic dilution mixtures are added to 13.5 molten (50° C.) Mueller-Hinton agar. Each resulting mixture is poured into 15×100 mm, sterile Petri plates and allowed to dry at room temperature overnight.
(§3) Test bacterial cultures are maintained at -70° C. on glass beads. [See R. J. Yancey, Jr. et al, Amer. Jr. of Vet. Research, 48, No. 7, pp. 1050-1053, (1987)]. At least one bacteria-laden bead per culture is dropped into one ml. of brain heart infusion (BHI) broth for overnight culture at 37° C. in 5% V/V carbon dioxide in air atmosphere.
(§4) On the data of assay, 2 to 8 drops of the bacterial broth cultures are transferred to fresh BHI broth (1 ml.) and the mixture is incubated for 4 to 6 hours at 37° C. in a 5% V/V carbon dioxide in air atmosphere. The resulting cultures are then diluted to match a 0.5 MacFarland standard and further diluted 1:20 V/V with sterile saline solution.
(§5) A 0.001 ml. drop of the resulting mixture, containing approximately 10^3 to 10^4 colony forming units (CFU) of each test bacteria organism, is dispensed onto the surface of the test antibiotic compound test plates with a Steer's type replicator. The resulting innoculated plates are incubated 16 to 18 hours at 37° C. with a carbon dioxide atmosphere.
as §1, with “solution” for “solutions”
as §2, with “mm.” for “mm,”
as §2, with “for Microbiology.” for “for Microbiology,”, “15×100 mm.” for “15×100 mm,”
as §3, with “culture” for “cultures”
(§6) On the day of assay, 2 to 8 drops of the bacterial broth cultures are transferred to fresh BHI broth (1 ml.) and the mixture is incubated for 4 to 6 hours at 37° C. in a 5% V/V carbon dioxide in air atmosphere. […]

[2] = system: Bordetella bronchiseptica; assay: MIC, agar dilution, Bordetella bronchiseptica; assay type: cell-based; conditions: Bordetella bronchiseptica; strain UC6313; read-out: MIC
Procedure: as §1, with “solution” for “solutions”
as §2, §3, §4, §5, §1
as §2, with “mm.” for “mm,”
as §2, with “for Microbiology.” for “for Microbiology,”, “15×100 mm.” for “15×100 mm,”
as §3, with “culture” for “cultures”
as §6

[3] = system: Escherichia coli; assay: MIC, agar dilution, Escherichia coli; assay type: cell-based; conditions: Escherichia coli, read-out: MIC
Procedure: as §1, with “solution” for “solutions”
as §2, §3, §4, §5, §1
as §2, with “mm.” for “mm,”
as §2, with “for Microbiology.” for “for Microbiology,”, “15×100 mm.” for “15×100 mm,”
as §3, with “culture” for “cultures”
as §6

[4] = system: Pasteurella hemolytica; assay: MIC (minimum inhibitory concentration), agar dilution, Pasteurella hemolytica; assay type: cell-based; conditions: Pasteurella, read-out: MIC
Procedure: as §1, with “solution” for “solutions”
as §2, §3, §4, §5, §1
as §2, with “mm.” for “mm,”
as §2, with “for Microbiology.” for “for Microbiology,”, “15×100 mm.” for “15×100 mm,”
as §3, with “culture” for “cultures”
as §6

[5] = system: Streptococcus agalactiae; assay: MIC, agar dilution, Streptococcus agalactiae; assay type: cell-based; conditions: Streptococcus agalactiae, read-out: MIC
Procedure: as §1, with “solution” for “solutions”
as §2, §3, §4, §5, §1
as §2, with “mm.” for “mm,”
as §2, with “for Microbiology.” for “for Microbiology,”, “15×100 mm.” for “15×100 mm,”
as §3, with “culture” for “cultures”
as §6

[6] = system: Streptococcus bovis; assay: MIC, agar dilution, Streptococcus bovis; assay type: cell-based; conditions: Streptococcus equinus; strain UC6281; read-out: MIC
Procedure: as §1, with “solution” for “solutions”
as §2, §3, §4, §5, §1
as §2, with “mm.” for “mm,”
as §2, with “for Microbiology.” for “for Microbiology,”, “15×100 mm.” for “15×100 mm,”
as §3, with “culture” for “cultures”
as §6

[7] = system: Salmonella choleraesuis; assay: MIC, agar dilution, Salmonella choleraesuis; assay type: cell-based; conditions: Salmonella enterica, read-out: MIC
Procedure: as §1, with “solution” for “solutions”
as §2, §3, §4, §5, §1
as §2, with “mm.” for “mm,”
as §2, with “for Microbiology.” for “for Microbiology,”, “15×100 mm.” for “15×100 mm,”
as §3, with “culture” for “cultures”
as §6

[8] = system: Streptococcus dysgalactiae; assay: MIC, agar dilution, Streptococcus dysgalactiae; assay type: cell-based; conditions: Streptococcus dysgalactiae; strain UC251; read-out: MIC
Procedure: as §1, with “solution” for “solutions”
as §2, §3, §4, §5, §1
as §2, with “mm.” for “mm,”
as §2, with “for Microbiology.” for “for Microbiology,”, “15×100 mm.” for “15×100 mm,”
as §3, with “culture” for “cultures”
as §6

[9] = system: Salmonella typhimurium; assay: MIC, agar dilution, Salmonella typhimurium; assay type: cell-based; conditions: Salmonella enterica, read-out: MIC
Procedure: as §1, with “solution” for “solutions”
as §2, §3, §4, §5, §1
as §2, with “mm.” for “mm,”
as §2, with “for Microbiology.” for “for Microbiology,”, “15×100 mm.” for “15×100 mm,”
as §3, with “culture” for “cultures”
as §6

[10] = system: Pseudomonas aeruginosa; assay: MIC, agar dilution, Pseudomonas aeruginosa; assay type: cell-based; conditions: Pseudomonas aeruginosa, ATCC27853; strain ATCC 27853; read-out: MIC
Procedure: as §1, with “solution” for “solutions”
as §2, §3, §4, §5, §1
as §2, with “mm.” for “mm,”
as §2, with “for Microbiology.” for “for Microbiology,”, “15×100 mm.” for “15×100 mm,”
as §3, with “culture” for “cultures”
as §6

[11] = system: Streptococcus suis; assay: MIC, agar dilution, Streptococcus suis; assay type: cell-based; conditions: Streptococcus suis; strain 650-2; read-out: MIC
Procedure: as §1, with “solution” for “solutions”
as §2, §3, §4, §5, §1
as §2, with “mm.” for “mm,”
as §2, with “for Microbiology.” for “for Microbiology,”, “15×100 mm.” for “15×100 mm,”
as §3, with “culture” for “cultures”
as §6

[12] = system: Micrococcus luteus; assay: MIC, agar dilution, Micrococcus luteus; assay type: cell-based; conditions: Micrococcus luteus; strain UC130; read-out: MIC
Procedure: as §1, with “solution” for “solutions”
as §2, §3, §4, §5, §1
as §2, with “mm.” for “mm,”
as §2, with “for Microbiology.” for “for Microbiology,”, “15×100 mm.” for “15×100 mm,”
as §3, with “culture” for “cultures”
as §6

[13] = system: Staphylococcus aureus; assay: MIC, agar dilution, Staphylococcus aureus; assay type: cell-based; conditions: Staphylococcus aureus, read-out: MIC
Procedure: as §1, with “solution” for “solutions”
as §2, §3, §4, §5, §1
as §2, with “mm.” for “mm,”
as §2, with “for Microbiology.” for “for Microbiology,”, “15×100 mm.” for “15×100 mm,”
as §3, with “culture” for “cultures”
as §6

[14] = system: Streptococcus uberis; assay: MIC, agar dilution, Streptococcus uberis; assay type: cell-based; conditions: Streptococcus uberis, read-out: MIC
Procedure: as §1, with “solution” for “solutions”
as §2, §3, §4, §5, §1
as §2, with “mm.” for “mm,”
as §2, with “for Microbiology.” for “for Microbiology,”, “15×100 mm.” for “15×100 mm,”
as §3, with “culture” for “cultures”
as §6

[15] = system: Corynebacterium pyogenes; assay: MIC, agar dilution, Corynebacterium pyogenes; assay type: cell-based; conditions: strain 213-2; read-out: MIC
Procedure: as §1, with “solution” for “solutions”
as §2, §3, §4, §5, §1
as §2, with “mm.” for “mm,”
as §2, with “for Microbiology.” for “for Microbiology,”, “15×100 mm.” for “15×100 mm,”
as §3, with “culture” for “cultures”
as §6

[16] = system: Enterococcus faecium; assay: MIC, agar dilution, Enterococcus faecium; assay type: cell-based; conditions: Enterococcus faecium; strain UC241; read-out: MIC
Procedure: as §1, §2, §3, §4, §5
as §1, with “solution” for “solutions”
as §2, with “mm.” for “mm,”
as §2, with “for Microbiology.” for “for Microbiology,”, “15×100 mm.” for “15×100 mm,”
as §3, with “culture” for “cultures”
as §6

[17] = system: Pasteurella multocida; assay: MIC, agar dilution, Pasteurella multocida; assay type: cell-based; conditions: Pasteurella multocida; strain UC9581; read-out: MIC
Procedure: as §1, with “solution” for “solutions”
as §2, §3, §4, §5, §1
as §2, with “mm.” for “mm,”
as §2, with “for Microbiology.” for “for Microbiology,”, “15×100 mm.” for “15×100 mm,”
as §3, with “culture” for “cultures”
as §6

[18] = Serum half life / duration of antibiotic action; conditions: inferred from results against Salmonella typhimurium
[19] = system: Salmonella typhimurium; assay: Systemic infection model in mice, ED50, Salmonella typhimurium; assay type: in vivo; conditions: Salmonella enterica, TYPHIMURIUM / UC6164, sc, 144 h, strain UC6164, lactamase producing, subcutaneous, 0, 24, 48 hours post infection, 50% survival six days post infection, per day, read-out: ED50 (95% confidence limits)
Procedure: (§7) Experimental Infections and Antitiotic Treatment (for ED50 in mice tests).
(§8) Mice are infected and treated with the test antibiotic compound according to procedures described previously [Yancey, Jr., R. J. et at. supra].
(§9) The test antibiotic compound is administered subcutaneously immediately following infection, then at 24 hours and 48 hours post infection. The medium effective dose (ED50) number is determined for all infections. The ED50 value is defined as the calculated concentration of the test antibiotic compound in mg. of compound per kilogram of mouse body weight per day at which 50% of the animals survived six days post infection.

[20] = system: P. hemolytica; assay: Systemic infection model in mice, ED50, P. hemolytica; assay type: in vivo; conditions: Mus musculus, sc, 144 h, strain UC6532, lactamase producing, subcutaneous, 0, 24, 48 hours post infection, 50% survival six days post infection, per day, read-out: ED50 (95% confidence limits)
Procedure: as §7, §8, §9

## CO/N=C(\C(=O)N[C@@H]1C(=O)N2C(C(=O)O)=C(CSCC(N)=O)CS[C@H]12)c1csc(N)n1 [Example 7, 7-[2-(2-amino-1,3-thiazol-4-yl)-2-(methoxyimino)acetamido]-3-(aminocarbonylmethylthiomethyl)-3-cephem-4-carboxylic acid]
[1]
  MIC: > 32 µg/mL
[2]
  MIC: > 32 µg/mL
[3]; strain UC3784
  MIC: 1 µg/mL (≈ 2.06 µM)
[3]; strain UC6720
  MIC: 1 µg/mL (≈ 2.06 µM)
[3]; strain UC9670
  MIC: 1 µg/mL (≈ 2.06 µM)
[4]; strain UC6531
  MIC: ≤ 0.06 µg/mL
[4]; strain UC6532
  MIC: ≤ 0.06 µg/mL
[4]; strain UC9582
  MIC: ≤ 0.06 µg/mL
[5]; strain UC3947
  MIC: ≤ 0.06 µg/mL
[5]; strain UC6892
  MIC: ≤ 0.06 µg/mL
[6]
  MIC: 0.13 µg/mL (≈ 0.267 µM)
[7]; CHOLERAESUIS / UC6073, strain UC6073
  MIC: 1 µg/mL (≈ 2.06 µM)
[7]; CHOLERAESUIS / UC6077, strain UC6077
  MIC: 2 µg/mL (≈ 4.11 µM)
[8]
  MIC: ≤ 0.06 µg/mL
[9]; TYPHIMURIUM / UC6162, strain UC6162
  MIC: 1 µg/mL (≈ 2.06 µM)
[9]; TYPHIMURIUM / UC6164, strain UC6164
  MIC: 1 µg/mL (≈ 2.06 µM)
[10]
  MIC: > 32 µg/mL
[11]
  MIC: 0.13 µg/mL (≈ 0.267 µM)
[12]
  MIC: 0.25 µg/mL (≈ 0.514 µM)
[13]; strain UC6093
  MIC: 4 µg/mL (≈ 8.22 µM)
[13]; strain UC6097
  MIC: 4 µg/mL (≈ 8.22 µM)
[13]; strain UC9203
  MIC: 4 µg/mL (≈ 8.22 µM)
[14]; strain UC3946
  MIC: 0.13 µg/mL (≈ 0.267 µM)
[14]; strain UC6159
  MIC: 32 µg/mL (≈ 65.8 µM)
[15]
  MIC: 16 µg/mL (≈ 32.9 µM)
[16]
  MIC: > 32 µg/mL
[17]
  MIC: ≤ 0.06 µg/mL
[18]
  serum half life: longer serum half life

## CC1(C)S[C@@H]2[C@H](NC(=O)[C@H](N)c3ccccc3)C(=O)N2[C@H]1C(=O)O [ampicillin]
[19]
  ED50: > 100 mg/kg
[20]
  ED50: > 100 mg/kg
